Read-outs that look alike come from different tables or passages of the source.
Columns and labels:
Adrenergic β2 = test system: T1, Adrenergic β2; assay: Cerep binding; parameters: species or system human; settings: 10 μM; [3H](-)CGP 12177; hum. recomb. (CHO)
T1 construct: host or cells: CHO

Serotonin 5-HT2B = test system: T2, Serotonin 5-HT2B; assay: Cerep binding; parameters: species or system human; settings: 10 μM; [125I](±)DOI; hum. recomb. (CHO)
T2 construct: purchased Eurofins Cerep

Opioid δ2 = test system: T3, Opioid δ2; assay: Cerep binding; parameters: species or system human; settings: 10 μM; [3H]DADLE; hum. recomb. (CHO)
T3 construct: host or cells: CHO

[1] = Plasma levels, object retrieval task; type: in vivo, Macaca fascicularis; settings: cynomolgus monkey, oral; for concentration at 180 min: read-out: total plasma concentration
Description: Twelve cynomolgus macaques were presented with a clear acrylic box with one open side baited with a food treat, as described previously[14],[38]. The test is easy when the open side of the box is directed towards the subject and difficult when the open sides face other directions. […] Compound doses were administered in a pseudorandom order. Administration of dose and behavioral measurements were completed blind. Data were analysed using a one-way repeated measures ANOVA followed, in significant cases, by a post hoc Dunnett’s test. Plasma samples were collected from the same three subjects at each dose group at 3 h post administration. […] The calibration range was from 1.0 to 5000 ng/mL. After protein precipitation with ethanol, the sample solution was injected onto a Gemini C18 trapping column (2 × 10 mm; Phenomenex, Torrance, CA, USA) and polar endogenous compounds and salts were rinsed off. […] A drug analogue was used as an internal standard.

human GABAA α5β3γ2 = human GABAA α5β3γ2 (Homo sapiens, UniProt P18507+P31644); assay: Two-electrode voltage clamp in Xenopus oocytes, current induced by EC10 of GABA; type: cell-based; parameters: expressed in transfected cells; host or cells: Xenopus laevis oocytes, cRNA injection
Description: Freshly prepared oocytes of maturation stage VI were bought from Ecocyte Bioscience (Castrop-Rauxel, Germany) and, after overnight delivery, plated into 96-well plates (Greiner no. 651101) for microinjection on a ROBOOCYTE R16 system (Multichannel Systems MCS GmbH, Reutlingen, Germany). Each oocyte was injected with roughly 50 nL of RNA solution. The solution for expressing receptors composed of the human α1, β2 and γ2 subunits contained 3 pg/nL of α1 and β2 RNA and 15 pg/nL of γ2 RNA. The solution for expressing human α2β3γ2 receptors contained 2.5 pg/nL of α2 and β3 RNA, 5 pg/nL of γ2 RNA and 10 pg/nL of GABARAP RNA. The solution for expressing human α3β3γ2 receptors contained 1.3 pg/nL of α3 and β3 RNA and 6.5 pg/nL of γ2 RNA. The solution for expressing human α5β3γ2 receptors contained 1.3 pg/nL of α5 and β3 RNA and 13 pg/nL of γ2 RNA. […] After the microinjection the oocytes were kept at 20 °C temperature until the electrophysiological experiment. Experiments were done 3 to 5 days later on the ROBOOCYTE instrument which employs the two-microelectrode voltage-clamp technique for membrane voltage control and current measurement. […] During current recording and compound testing the cell membrane was constantly clamped to − 80 mV. Current signals were recorded and stored on a PC-type computer using the ROBOOCYTE software.
During the microinjection and up to the electrophysiological experiment the oocytes were kept in a solution containing 88 mM NaCl, 1 mM KCl, 2.5 mM NaHCO3, 10 mM HEPES (AppliChem GmbH, Darmstadt, Germany), 0.82 MgSO4, 0.33 mM Ca(NO3)2, 0.33 mM CaCl2, 100 U/mL penicillin (GIBCO, ThermoFisher Scientific) and 100 µg/mL streptomycine (GIBCO, ThermoFisher Scientific). The pH was adjusted to 7.5. During the experiment the voltage-clamped oocyte was constantly superfused by a solution containing 90 mM NaCl, 1 mM KCl, 5 mM HEPES (AppliChem), 1 mM MgCl2 and 1 mM CaCl2 (pH 7.4). GABA and test compounds were added to this solution. GABA concentrations were chosen according to previously determined concentration–response relations for the different human GABAA receptor subunit combinations. Concentrations evoking approximately 10% of a maximal response were selected, i.e., 8 µM for α1β2γ2, 6 µM for α2β3γ2, 10 µM for α3β3γ2 and 5 µM for α5β3γ2. Solutions containing GABA or test compounds were freshly prepared at least every second day. […] Compounds were further diluted in DMSO and finally in extracellular saline to reach a DMSO concentration of 0.1%. The same amount of DMSO was added to the control solutions without test compounds.
During the experiment the solutions were fed into the well containing the voltage-clamped oocyte via Teflon tubings connected by electromagnetic valves which allowed rapid switching between different solutions (controlled by the ROBOCYTE software). Approximately 1–2 min after impaling an oocyte and switching to voltage-clamp mode GABA was applied for 90 s to record a control response. Thereafter the oocyte was washed with saline for 160 s followed by another 90 s GABA application. Then 30 s after the onset of the second GABA application the system switched to a solution containing GABA plus the test compound. Each oocyte was used for testing one concentration of a single test compound (for α5β3γ2: 1 nM: n = 8, 10 nM: n = 8, 100 nM: n = 7, 1000 nM: n = 7).
In this case each GABA application lasted 110 s and the rest period between the two GABA applications was 190 s long.
On each 96-well plate 3–6 oocytes were used for testing a known NAM at the BZD binding site, β-CCM (FG7106), as a positive control. […] Maximally effective concentrations of β-CCM were used for each subunit combination, i.e., 100 nM β-CCM for α1β2γ2, 300 nM for α2β3γ2 or α3β3γ2 and 1 µM for α5β3γ2.

[2] = concentration–response curve, n = 7

human GABAA α5β3γ2, sequence (P31644 32-462): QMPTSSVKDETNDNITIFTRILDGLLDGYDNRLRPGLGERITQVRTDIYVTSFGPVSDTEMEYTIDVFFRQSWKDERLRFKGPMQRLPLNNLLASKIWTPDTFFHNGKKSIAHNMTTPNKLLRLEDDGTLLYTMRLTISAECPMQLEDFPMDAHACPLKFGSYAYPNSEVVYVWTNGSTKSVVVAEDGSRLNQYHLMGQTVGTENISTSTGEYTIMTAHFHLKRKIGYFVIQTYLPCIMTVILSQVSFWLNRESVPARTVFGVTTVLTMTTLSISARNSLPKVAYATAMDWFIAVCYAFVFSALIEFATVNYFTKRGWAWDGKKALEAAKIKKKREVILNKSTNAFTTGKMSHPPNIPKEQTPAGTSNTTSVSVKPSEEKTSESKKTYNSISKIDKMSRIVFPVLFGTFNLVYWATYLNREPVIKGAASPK
human GABAA α5β3γ2, sequence (P28472 26-473 partner): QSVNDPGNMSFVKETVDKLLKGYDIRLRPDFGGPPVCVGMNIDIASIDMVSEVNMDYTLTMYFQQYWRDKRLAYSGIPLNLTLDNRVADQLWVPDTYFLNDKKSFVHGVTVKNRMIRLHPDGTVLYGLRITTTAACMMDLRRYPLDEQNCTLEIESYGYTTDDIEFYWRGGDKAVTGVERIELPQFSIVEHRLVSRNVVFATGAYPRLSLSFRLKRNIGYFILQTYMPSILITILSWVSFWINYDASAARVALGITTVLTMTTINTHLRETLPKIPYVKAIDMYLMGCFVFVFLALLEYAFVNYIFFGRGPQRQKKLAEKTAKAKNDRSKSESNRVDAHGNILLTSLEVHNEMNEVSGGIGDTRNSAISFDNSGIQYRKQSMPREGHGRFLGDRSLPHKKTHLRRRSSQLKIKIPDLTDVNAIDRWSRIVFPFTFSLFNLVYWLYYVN
human GABAA α5β3γ2, sequence (P18507 40-475): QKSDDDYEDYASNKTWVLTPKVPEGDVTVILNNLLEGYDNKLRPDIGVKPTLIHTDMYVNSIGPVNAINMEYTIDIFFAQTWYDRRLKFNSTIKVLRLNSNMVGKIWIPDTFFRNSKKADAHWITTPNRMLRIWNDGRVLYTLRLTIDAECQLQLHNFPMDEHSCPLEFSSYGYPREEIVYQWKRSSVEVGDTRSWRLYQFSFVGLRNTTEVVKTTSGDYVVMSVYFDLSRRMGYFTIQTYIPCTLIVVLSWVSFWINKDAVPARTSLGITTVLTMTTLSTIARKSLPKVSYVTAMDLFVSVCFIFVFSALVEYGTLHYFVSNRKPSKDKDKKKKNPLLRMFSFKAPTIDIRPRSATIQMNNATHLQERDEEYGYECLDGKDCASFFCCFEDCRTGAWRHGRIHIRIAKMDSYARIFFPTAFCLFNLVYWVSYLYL

With Cc1onc(-c2ccc(F)cc2)c1COc1ccc(C(=O)N2CCS(=O)(=O)CC2)cn1 [basmisanil] the “% Inhibition” value (Adrenergic β2) was 10%, the “% Inhibition” value (Serotonin 5-HT2B) was 31% and the “% Inhibition” value (Opioid δ2) was 8%. For the same molecule, the concentration at 180 min ([1]; 1 mg/kg p.o.) was 257 ng/mL, the concentration at 180 min ([1]; 3 mg/kg p.o.) was 1020 ng/mL and the concentration at 3 h ([1]; 3 mg/kg p.o., read-out: free plasma concentration) was 156 nM. For the same molecule, the concentration at 180 min ([1]; 10 mg/kg p.o.) was 2260 ng/mL, the concentration at 180 min ([1]; 30 mg/kg p.o.) was 2850 ng/mL and the “decrease of GABA-induced current under co-treatment with flumazenil” value (human GABAA α5β3γ2; 100 nM basmisanil + flumazenil 30 or 1000 nM) was “blocked by co-treatment with flumazenil”. The “reduction of the GABA-evoked current” value (human GABAA α5β3γ2; 1 µM, highest concentration tested, 5 µM GABA) was 42 ± 1%, the Hill slope (human GABAA α5β3γ2; [2]) was 0.9 and the IC50 (human GABAA α5β3γ2; [2]) was 8 nM.

Source: paper PMC8032764 (Scientific Reports, 2021)
